BindingDB's records for doi:10.1021/jm00117a017 (Merck Sharp and Dohme Research Laboratories, 1988)

Columns and labels:
[1] = molecular target: D-alanine--D-alanine ligase (Enterococcus faecalis); test: Antibacterial activity against D-alanyl-D-alanine ligase from Streptococcus faecalis (ATCC 8043)
[2] = as above

| SMILES | IC50 [1] | IC50 [2] |
| --- | --- | --- |
| CC(N)P(=O)(O)CC(Cc1ccccc1)C(=O)O (stereo not given) | 50 µM | – |
| CCCCCCCC(C[PH](O)(O)C(C)=N)C(=O)O (stereo not given) | 200 µM | 12.5 µM |
| C[C@H](N)P(=O)(O)O [1-Ammonium-ethanephosphonic acid anion] | 930 µM | – |
| CC(=N)[PH](O)(O)CC(CC(C)C)C(=O)O (stereo not given) [2-[(1-Amino-ethyl)-hydroxy-phosphinoylmethyl]-4-methyl-pentanoic acid;hydrate] | 30 µM | – |
| CC(=N)[PH](O)(O)CC(CCc1ccccc1)C(=O)O (stereo not given) [2-[(1-Amino-ethyl)-hydroxy-phosphinoylmethyl]-4-phenyl-butyric acid;hydrate] | 40 µM | – |
| CC(N)P(=O)(O)CC(CCCc1ccccc1)C(=O)O (stereo not given) [2-[(1-Amino-ethyl)-hydroxy-phosphinoylmethyl]-5-phenyl-pentanoic acid;hydrate] | 50 µM | – |
| CCC(C[PH](O)(O)C(C)=N)C(=O)O (stereo not given) [2-[(1-Amino-ethyl)-hydroxy-phosphinoylmethyl]-butyric acid;hydrate] | 45 µM | – |
| CCCC(CP(=O)(O)C(C)N)C(=O)O (stereo not given) [2-[(1-Amino-ethyl)-hydroxy-phosphinoylmethyl]-pentanoic acid;hydrate] | 20 µM | – |
| CCCCC(C[PH](O)(O)C(=N)CC)C(=O)O (stereo not given) [2-[(1-Amino-propyl)-hydroxy-phosphinoylmethyl]-hexanoic acid;hydrate] | 155 µM | – |
